Molecular target: T1, recombinant human Axl kinase (catalytic domain, amino acids 473-894) (Homo sapiens, UniProt P30530)
T1 construct: catalytic domain, amino acids 473-894; purchased Invitrogen Corporation, Carlsbad, Calif
T1 sequence (P30530 473-894): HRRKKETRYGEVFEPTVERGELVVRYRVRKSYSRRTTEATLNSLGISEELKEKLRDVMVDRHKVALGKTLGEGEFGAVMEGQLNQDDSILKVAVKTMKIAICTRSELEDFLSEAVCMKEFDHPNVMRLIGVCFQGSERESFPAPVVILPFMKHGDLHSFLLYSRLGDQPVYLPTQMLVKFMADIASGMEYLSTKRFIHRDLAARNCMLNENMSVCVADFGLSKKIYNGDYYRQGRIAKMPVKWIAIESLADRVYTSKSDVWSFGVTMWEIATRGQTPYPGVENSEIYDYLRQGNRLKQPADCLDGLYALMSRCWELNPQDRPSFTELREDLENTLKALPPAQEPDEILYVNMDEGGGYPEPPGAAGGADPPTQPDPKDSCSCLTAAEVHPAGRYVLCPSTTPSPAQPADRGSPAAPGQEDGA
Assay: Axl kinase activity assay (TR-FRET, fluorescein poly-GT substrate)
Type: biochemical
Conditions: 20 μM ATP, 93 ng/ml Axl kinase, 60 min; read-out: IC50 (Axl kinase activity)
Procedure: Test compounds were diluted to desired concentrations in kinase reaction buffer (50 mM HEPES pH 7.5, 10 mM MgCl2, 1 mM EGTA, 2 mM DTT, and 0.01% v/v Tween-20) and were briefly incubated with Axl kinase (Invitrogen Corporation, Carlsbad, Calif.). The Axl kinase used was recombinant human Axl kinase (catalytic domain, amino acids 473-894) with a histidine tag. The reaction was initiated by the addition of ATP and fluorescein-labeled poly-GT substrate (poly Glu:Tyr, 4:1 polymer; Invitrogen). Concentration of the various components in the assay (10 μl reaction volume) were: 1% DMSO, 93 ng/ml Axl kinase, 20 μM ATP, and 200 nM fluorescein poly-GT substrate. Following addition of ATP and fluorescein poly-GT substrate, incubation was for 60 min at room temperature, the enzyme reaction is stopped by addition of 10 μl terbium-labeled anti-phosphotyrosine PY20 antibody in EDTA-containing buffer. Final concentration of EDTA and antibody after addition to the reaction is 10 mM and 2 nM, respectively. The terbium conjugated antibody generates a time-resolved FRET signal with the fluorescein molecule (bound to the poly-GT substrate) when the substrate is phosphorylated. After one hour incubation at room temperature, fluorescence was measured with excitation of 320 nm and dual emission of 495 and 520 urn on an EnVision microplate reader (PerkinElmer). Signal is expressed in terms of a TR-FRET ratio (fluorescence intensity at 520 nm to 495 nm).
IC50 values are determined using GraphPad Prism 5 software. The data were entered as an X-Y plot into the software as percent inhibition for each concentration of the drug. The concentration values of the drug were log transformed and the nonlinear regression was carried out using the “sigmoidal dose-response (variable slope)” option within the GraphPad software to model the data and calculate IC50 values.

IC50 [µM] | SMILES
1.61 | COc1cccc(-c2nc(Nc3ccc(CN4CCN(C)CC4)cc3)ncc2C)c1 [Compound 19]
0.099 | CN1CCN(Cc2ccc(Nc3ncc(Cl)c(-c4ccc(F)cc4S(=O)(=O)N(C)C)n3)cc2)CC1 [Compound 8]
2.3 | CC(=O)Nc1cccc(-c2nc(Nc3ccc(CN4CCN(C)CC4)cc3)ncc2C)c1 [Compound 22]
0.24 | CN1CCN(Cc2ccc(Nc3ncc(Cl)c(Nc4ccc(F)cc4S(=O)(=O)N4CCOCC4)n3)cc2)CC1 [Compound 10]
1.14 | CN1CCN(Cc2ccc(Nc3ncc(F)c(-c4ccc(F)cc4S(=O)(=O)N4CCCC4)n3)cc2)CC1 [Compound 16]
1.08 | CN1CCN(Cc2ccc(Nc3ncc(Cl)c(Nc4ccc(Cl)cc4S(=O)(=O)N4CCCC4)n3)cc2)CC1 [Compound 15]
5.14 | Cc1cnc(Nc2ccc(CN3CCN(C)CC3)cc2)nc1-c1cc(Cl)cc(C(F)(F)F)c1 [Compound 28]
3.3 | Cc1cnc(Nc2ccc(CN3CCN(C)CC3)cc2)nc1-c1cccc(OC(F)(F)F)c1 [Compound 25]
> 100 | CN1CCN(Cc2ccc(Nc3ncc(C(F)(F)F)c(Nc4ccccc4C(=O)N(C)C)n3)cc2)CC1 [Compound 31]
62.7 | Cc1cnc(Nc2ccc(CN3CCN(C)CC3)cc2)nc1Nc1ccc(F)c(Cl)c1 [Compound 30]
2.93 | Cc1cnc(Nc2ccc(CN3CCN(C)CC3)cc2)nc1-c1ccc(F)cc1S(=O)(=O)N1CCCC1 [Compound 24]
1.86 | Cc1cnc(Nc2ccc(CN3CCN(C)CC3)cc2)nc1-c1ccc(F)cc1 [Compound 21]
1.4 | Cc1cnc(Nc2ccc(CN3CCN(C)CC3)cc2)nc1Oc1ccc(F)c(Cl)c1 [Compound 18]
1.83 | Cc1ccc(-c2nc(Nc3ccc(CN4CCN(C)CC4)cc3)ncc2C)cc1C#N [Compound 20]
57.2 | CN1CCN(Cc2ccc(Nc3nc(N)cc(-c4ccc(F)c(Cl)c4)n3)cc2)CC1 [Compound 29]
2.91 | Cc1cnc(Nc2ccc(CN3CCN(C)CC3)cc2)nc1-c1cccc(S(C)(=O)=O)c1 [Compound 23]
1.31 | CN1CCN(Cc2ccc(Nc3ncc(Cl)c(Nc4ccc(O)cc4S(=O)(=O)N4CCCC4)n3)cc2)CC1 [Compound 17]
3.35 | CN1CCN(Cc2ccc(Nc3ncc(C4CC4)c(-c4ccc(F)c(Cl)c4)n3)cc2)CC1 [Compound 26]
3.9 | CN1CCN(Cc2ccc(Nc3ncc(Cl)c(N(C)c4ccc(F)cc4S(=O)(=O)N4CCCC4)n3)cc2)CC1 [Compound 27]

Same assay, conditions: tested in triplicate, FIG. 4A; read-out: IC50, inhibition of Axl activity

IC50 [µM] | SMILES
~0.02 | CN1CCN(Cc2ccc(Nc3ncc(Cl)c(Nc4ccccc4S(=O)(=O)N4CCCC4)n3)cc2)CC1 [5-chloro-N2-(4-((4-methylpiperazin-1-yl)methyl)phenyl)-N4-(2-(pyrrolidin-1-ylsulfonyl)phenyl)pyrimidine-2,4-diamine]
